Among the data in US20250025443A1, “COMPOUNDS AND METHODS FOR TREATING CORONA VIRUSES” (CLEAR CREEK BIO, INC., priority 2021, published 2025) are IC50 values, retold here.

Usually IC50 stands for the midpoint of a concentration-inhibition curve.

The assay has as its target SARS-CoV-2 Papain-Like Protease (PLpro) (Severe acute respiratory syndrome coronavirus 2 (2019-nCoV) (SARS-CoV-2), UniProt P0DTD1). Briefly: biochemical. The note with it: PLpro enzymatic fluorescence assay; class symbols; read-out: PLpro IC50.

As to `Cc1ccc(OC[C@@H]2CCN2C)cc1C(=O)NC1(c2cc(-c3cc(Cl)cs3)cc3ncccc23)CC1` [Compound 632, (S)-N-(1-(7-(4-Chlorothiophen-2-yl)quinolin-5-yl)cyclopropyl)-2-methyl-5-((1-methylazetidin-2-yl)methoxy)benzamide], the IC50 was less than 100 nM.

For `Cc1ccc(OC[C@@H]2CCN2C)cc1C(=O)NC1(c2cc(-c3cc[nH]n3)cc3ncccc23)CC1` [Compound 633, (S)-N-(1-(7-(1H-Pyrazol-3-yl)quinolin-5-yl)cyclopropyl)-2-methyl-5-((1-methylazetidin-2-yl)methoxy)benzamide], the IC50 is less than 100 nM. Turning to `Cc1ccc(OC[C@@H]2CCN2)cc1C(=O)NC1(c2cc(-c3ccn(C)n3)cc3ncccc23)CC1` [Compound 634, (S)-5-(Azetidin-2-ylmethoxy)-2-methyl-N-(1-(7-(1-methyl-1H-pyrazol-3-yl)quinolin-5-yl)cyclopropyl)benzamide], the IC50 was less than 100 nM. In the case of `Cc1cc(-c2cc(C3(NC(=O)c4cc(OC[C@@H]5CCN5)ccc4C)CC3)c3cccnc3c2)n[nH]1` [Compound 635, (S)-5-(Azetidin-2-ylmethoxy)-2-methyl-N-(1-(7-(5-methyl-1H-pyrazol-3-yl)quinolin-5-yl)cyclopropyl)benzamide] it was less than 100 nM.

`Cc1ccc(OC[C@@H]2CCN2)cc1C(=O)NC1(c2cc(-c3cc[nH]n3)cc3ncccc23)CC1` [Compound 636, (S)-N-(1-(7-(1H-Pyrazol-3-yl)quinolin-5-yl)cyclopropyl)-5-(azetidin-2-ylmethoxy)-2-methylbenzamide]: the IC50 was less than 100 nM. On to `Cc1ccc(OC[C@@H]2CCN2)cc1C(=O)NC1(c2cc(-c3cccnc3)cc3ncccc23)CC1` [Compound 637, (S)-5-(Azetidin-2-ylmethoxy)-2-methyl-N-(1-(7-(pyridin-3-yl)quinolin-5-yl)cyclopropyl)benzamide], for which the IC50 is less than 100 nM. For the compound `CC(=O)c1cc(C2(NC(=O)c3cc(OC[C@@H]4CCN4C)ccc3C)CC2)c2cccnc2c1` [Compound 638, (S)-N-(1-(7-Acetylquinolin-5-yl)cyclopropyl)-2-methyl-5-((1-methylazetidin-2-yl)methoxy)benzamide], the IC50 was less than 100 nM.

`CNCCOc1ccc(C)c(C(=O)NC2(c3cc(-c4ccnn4C)cc4ncccc34)CC2)c1` [Compound 639, 2-Methyl-N-(1-(7-(1-methyl-1H-pyrazol-5-yl)quinolin-5-yl)cyclopropyl)-5-(2-(methylamino)ethoxy)benzamide]: the IC50 is less than 100 nM.

Turning to `Cc1cc(-c2cc(C3(NC(=O)c4cc(OC[C@@H]5CCN5)ccc4C)CC3)c3cccnc3c2)cs1` [Compound 640, (S)-5-(Azetidin-2-ylmethoxy)-2-methyl-N-(1-(7-(5-methylthiophen-3-yl)quinolin-5-yl)cyclopropyl)benzamide], the IC50 was less than 100 nM. With `Cc1cc(-c2cc(C3(NC(=O)c4cc(OC[C@@H]5CCN5)ccc4C)CC3)c3cccnc3c2)c(C)o1` [Compound 641, (S)-5-(Azetidin-2-ylmethoxy)-N-(1-(7-(2,5-dimethylfuran-3-yl)quinolin-5-yl)cyclopropyl)-2-methylbenzamide], the IC50 was less than 100 nM. Turning to `Cc1ccc(OC[C@@H]2CCN2)cc1C(=O)NC1(c2cc(-c3cn[nH]c3)cc3ncccc23)CC1` [Compound 642, (S)-N-(1-(7-(1H-Pyrazol-4-yl)quinolin-5-yl)cyclopropyl)-5-(azetidin-2-ylmethoxy)-2-methylbenzamide], the IC50 was less than 100 nM. The figure for `CC(=O)c1ccc(-c2cc(C3(NC(=O)c4cc(OC[C@@H]5CCN5)ccc4C)CC3)c3cccnc3c2)s1` [Compound 643, (S)-N-(1-(7-(5-Acetylthiophen-2-yl)quinolin-5-yl)cyclopropyl)-5-(azetidin-2-ylmethoxy)-2-methylbenzamide] is less than 100 nM; for `Cc1ccc(OC[C@@H]2CCN2C)cc1C(=O)NC1(c2cc(-c3ccn(C(F)F)n3)cc3ncccc23)CC1` [Compound 644, (S)-N-(1-(7-(1-(Difluoromethyl)-1H-pyrazol-3-yl)quinolin-5-yl)cyclopropyl)-2-methyl-5-((1-methylazetidin-2-yl)methoxy)benzamide] it is less than 100 nM. On to `Cc1ccc(OC[C@@H]2CCN2)cc1C(=O)NC1(c2cc(-c3ccoc3)cc3ncccc23)CC1` [Compound 645, (S)-5-(Azetidin-2-ylmethoxy)-N-(1-(7-(furan-3-yl)quinolin-5-yl)cyclopropyl)-2-methylbenzamide], for which the IC50 is less than 100 nM. For `Cc1ccc(-c2cc(C3(NC(=O)c4cc(OC[C@@H]5CCN5)ccc4C)CC3)c3cccnc3c2)o1` [Compound 646, (S)-5-(Azetidin-2-ylmethoxy)-2-methyl-N-(1-(7-(5-methylfuran-2-yl)quinolin-5-yl)cyclopropyl)benzamide], the IC50 is less than 100 nM. As to `CNCCOc1ccc(C)c(C(=O)NC2(c3cc(-c4ccn(C)n4)cc4ncccc34)CC2)c1` [Compound 647, 2-Methyl-N-(1-(7-(1-methyl-1H-pyrazol-3-yl)quinolin-5-yl)cyclopropyl)-5-(2-(methylamino)ethoxy)benzamide], the IC50 was less than 100 nM. `Cc1ccc(OC[C@@H]2CCN2C)cc1C(=O)NC1(c2cc(C3CCCC3)cc3ncccc23)CC1` [Compound 648, (S)-N-(1-(7-Cyclopentylquinolin-5-yl)cyclopropyl)-2-methyl-5-((1-methylazetidin-2-yl)methoxy)benzamide]: the IC50 is less than 100 nM. In the case of `Cc1ccc(OC[C@@H]2CCN2)cc1C(=O)NC1(c2cc(-c3ccnn3C)cc3ncccc23)CC1` [Compound 649, (S)-5-(Azetidin-2-ylmethoxy)-2-methyl-N-(1-(7-(1-methyl-1H-pyrazol-5-yl)quinolin-5-yl)cyclopropyl)benzamide] it was less than 100 nM; in that of `C=C(c1cc(C2(NC(=O)c3cc(OC[C@@H]4CCN4C)ccc3C)CC2)c2cccnc2c1)C(F)(F)F` [Compound 650, (S)-2-Methyl-5-((1-methylazetidin-2-yl)methoxy)-N-(1-(7-(3,3,3-trifluoroprop-1-en-2-yl)quinolin-5-yl)cyclopropyl)benzamide], less than 100 nM. On to `Cc1cc(-c2cc(C3(NC(=O)c4cc(OC[C@@H]5CCN5C)ccc4C)CC3)c3cccnc3c2)n[nH]1` [Compound 651, (S)-2-Methyl-N-(1-(7-(5-methyl-1H-pyrazol-3-yl)quinolin-5-yl)cyclopropyl)-5-((1-methylazetidin-2-yl)methoxy)benzamide], for which the IC50 is less than 100 nM. `Cc1ccc(OC[C@@H]2CCN2C)cc1C(=O)NC1(c2cc(-c3cn[nH]c3)cc3ncccc23)CC1` [Compound 652, (S)-N-(1-(7-(1H-Pyrazol-4-yl)quinolin-5-yl)cyclopropyl)-2-methyl-5-((1-methylazetidin-2-yl)methoxy)benzamide]: the IC50 was less than 100 nM. On to `Cc1ccc(-c2cc(C3(NC(=O)c4cc(OC[C@@H]5CCN5C)ccc4C)CC3)c3cccnc3c2)o1` [Compound 654, (S)-2-Methyl-5-((1-methylazetidin-2-yl)methoxy)-N-(1-(7-(5-methylfuran-2-yl)quinolin-5-yl)cyclopropyl)benzamide], for which the IC50 was less than 100 nM. On to `Cc1ccc(OC[C@@H]2CCN2C)cc1C(=O)NC1(c2cc(-c3ccoc3)cc3ncccc23)CC1` [Compound 655, (S)—N-(1-(7-(Furan-3-yl)quinolin-5-yl)cyclopropyl)-2-methyl-5-((1-methylazetidin-2-yl)methoxy)benzamide], for which the IC50 was less than 100 nM.

As to `Cc1ccc(OC[C@@H]2CCN2)cc1C(=O)NC1(c2cc(-c3ccn(C(F)F)n3)cc3ncccc23)CC1` [Compound 656, (S)-5-(Azetidin-2-ylmethoxy)-N-(1-(7-(1-(difluoromethyl)-1H-pyrazol-3-yl)quinolin-5-yl)cyclopropyl)-2-methylbenzamide], the IC50 is less than 100 nM. Take `CC(=O)c1ccc(-c2cc(C3(NC(=O)c4cc(OC[C@@H]5CCN5C)ccc4C)CC3)c3cccnc3c2)s1` [Compound 657, (S)-N-(1-(7-(5-Acetylthiophen-2-yl)quinolin-5-yl)cyclopropyl)-2-methyl-5-((1-methylazetidin-2-yl)methoxy)benzamide]: the IC50 was less than 100 nM. For the compound `Cc1ccc(OC[C@@H]2CCN2)cc1C(=O)NC1(c2cc(-c3ccc(C#N)s3)cc3ncccc23)CC1` [Compound 658, (S)-5-(Azetidin-2-ylmethoxy)-N-(1-(7-(5-cyanothiophen-2-yl)quinolin-5-yl)cyclopropyl)-2-methylbenzamide], the IC50 was less than 100 nM.

Regarding `Cc1ccc(OC[C@@H]2CCN2C)cc1C(=O)NC1(c2cc(-c3ccn(-c4ccccc4)n3)cc3ncccc23)CC1` [Compound 659, (S)-2-Methyl-5-((1-methylazetidin-2-yl)methoxy)-N-(1-(7-(1-phenyl-1H-pyrazol-3-yl)quinolin-5-yl)cyclopropyl)benzamide], the IC50 was less than 100 nM.

On to `C=C(C)c1cc(C2(NC(=O)c3cc(OC[C@H](C)NC)ccc3C)CC2)c2cccnc2c1` [Compound 660, (S)-2-Methyl-5-(2-(methylamino)propoxy)-N-(1-(7-(prop-1-en-2-yl)quinolin-5-yl)cyclopropyl)benzamide], for which the IC50 was less than 100 nM.

Consider `C=Cc1cc(C2(NC(=O)c3cc(OC[C@H](C)NC)ccc3C)CC2)c2cccnc2c1` [Compound 661, (S)-2-Methyl-5-(2-(methylamino)propoxy)-N-(1-(7-vinylquinolin-5-yl)cyclopropyl)benzamide], for which the IC50 is less than 100 nM. Turning to `Cc1ccc(OC[C@@H]2CCN2)cc1C(=O)NC1(c2cc(C3=CCCCC3)cc3ncccc23)CC1` [Compound 662, (S)-5-(Azetidin-2-ylmethoxy)-N-(1-(7-(cyclohex-1-en-1-yl)quinolin-5-yl)cyclopropyl)-2-methylbenzamide], the IC50 is less than 100 nM.

As to `Cc1ccc(OC[C@@H]2CCN2C)cc1C(=O)NC1(c2cc(C3=CCCCC3)cc3ncccc23)CC1` [Compound 663, (S)—N-(1-(7-(Cyclohex-1-en-1-yl)quinolin-5-yl)cyclopropyl)-2-methyl-5-((1-methylazetidin-2-yl)methoxy)benzamide], the IC50 is less than 100 nM.
